Experimental data: patent US20090233372A1, “COMPOSITIONS, KITS AND METHODS FOR DETERMINING ETIOLOGY OF TRALI AND DETECTING PATIENTS AT RISK FOR THIS TRANSFUSION REACTION” (Bonfils Blood Center, priority 2008, published 2009)

What was measured:
Format in all cases: cell-based
neutrophil oxidase = experiment: Priming of the neutrophil oxidase / fMLP stimulated respiratory burst by biologically active compounds; conditions: added directly to the assay
Source text: The priming activity of plasma specimens from various sources including patient samples and blood components has been described herein. The effects on priming by various dilutions may correlate with the concentration of biologically active compounds in the specimens. Many of these compounds are well characterized and their priming activities determined. […] Each has its own concentration dependent effects. […] Similar effects are seen with complement fragments (e.g., C5a), other biologically active lipids (e.g., leukotrienes), and other compounds (e.g., sCD40L). Antibodies to neutrophil antigens (e.g., HNA-3a) also can prime the oxidase enzyme system. All these agents may be detected in plasma from blood components implicated in TRALI or plasma from patients sustaining a TRALI reaction. All may be added directly to the assay and priming activity detected as described in other sections.

[1] = tested on: peripheral blood neutrophils; experiment: Priming assay using fluorescent probe (DHR) for hydrogen peroxide, flow cytometry
Experimental: Hydrogen peroxide (H2O2) is another reactive oxygen species produced by neutrophils when the NADPH oxidase and associated respiratory burst are activated. H2O2 can be detected intracellularly by incubating cells with dihydrorhodamine (DHR). This non-fluorescent compound will be oxidized to rhodamine, a potent fluorophore, when H2O2 is generated by activated neutrophils. This assay can be used to detect enhancement of the fMLP stimulated respiratory burst. […] Isolated peripheral blood neutrophils are incubated with 50 μM DHR. After exposure to fMLP (1 μM) or PAF (1 μM) for 3 minutes and fMLP (1 μM), the cells are placed on ice and samples analyzed with the evaluation of 10,000 events on a BD Canto flow cytometer. […] When PAF is used to prime the fMLP response, the result is a marked increase in H2O2 production expressed as MCF (˜250 MCF units).
This assay has been further optimized for the following reagents: DHR, 50 μM with the best loading time of 1 minute. Optional concentration of fMLP is 1 μM and PAF 1 μM. The assay should be analyzed in a flow cytometer as soon as possible but may be delayed up to 4 hours after completion without jeopardizing the results. Finally, plasma itself quenches the fluorescence. As a result the priming assay on this platform requires exposure of the cells to buffer or test sample for priming (PAF, plasma, etc), a low speed centrifugation to pellet cells, resuspension of cells in DHR containing buffer, then stimulation with fMLP. Determination of MCF is by analysis of 20,000 events. FIG. 6 summarizes results, expressed as mean ±SEM, with this assay in four separate experiments. Resting cells with buffer present very low levels of H2O2 with an increase when resting cells are stimulated with fMLP. Plasma from Day 0 and 7 stored platelet concentrates has little effect in the absence of fMLP.

neutrophils = experiment: Detection of priming by chemiluminescence (Diogenes probe); conditions: priming sample, then fMLP; FIG. 7 and FIG. 8
Experimental: A third assay makes use of energy from chemiluminescence to determine oxygen radical generation from activated neutrophils. In this reaction, neutrophils are incubated with the priming sample or buffer, then exposed to fMLP after addition of the chemiluminescent probe, Diogenes, and the energy released determined in a chemiluminescence reader. The optimal cell concentration is between 2.5×10^6 cells/ml and 5×10^6 cells/ml. The chemiluminescence is >90% SOD inhibitable and so detects superoxide anion. The optimal addition of diogene is 20 μl to provide specific determination of oxygen radicals released by the neutrophils respiratory burst. […] Buffer alone is included for control. […] As with fluorescence platform, plasma nonspecifically quenches the chemiluminescence. This can be circumvented with an extra wash step to remove plasma after incubating cells with the priming stimulus. The resultant assay is sensitive to the effect in stored blood products. […] The priming effect for PAF is presented for comparison. The results are expressed as mean ±SEM. This platform, using chemiluminescence, can be used to determine priming by biologic samples.

cytoplasts = experiment: Cytoplast priming assay, superoxide anion measured as cytochrome c reduction; conditions: PAF 1 μM, fMLP 1 μM
Experimental: Cytoplasts are neutrophils which have been sedimented on a 20% Ficoll gradient at 77,000×g. Cytoplasts, are devoid of nucleus, granules and other subcellular organelles. Cytoplasts retain the ability for random and directed migration, phagocytosis of opsonized particles as well as activation of a respiratory burst and generation of reactive oxygen species. They can be frozen at −70° C. and thawed; the thawed cytoplasts can be used as targets for priming activity. The advantage is that cytoplasts would be readily available for assaying priming activity of biologic specimens (FIG. 1B, 113) in place of freshly isolated neutrophils from a healthy donor.

IL-8: cytokine/chemokine found in biologically active plasma samples
priming of the fMLP stimulated respiratory burst (neutrophil oxidase): concentration dependent priming

TNF-alpha
priming of the fMLP stimulated respiratory burst (neutrophil oxidase): concentration dependent priming

fMLP
mean channel fluorescence (H2O2 production) ([1]; fMLP 1 μM by itself, 50 μM DHR, FIG. 5): 45

platelet activating factor [PAF]
H2O2 production expressed as MCF ([1]; PAF 1 μM for 3 minutes, then fMLP 1 μM, 50 μM DHR, FIG. 5): ~250 MCF units
priming of the fMLP stimulated respiratory burst (H2O2, MCF) ([1]; priming sample, then fMLP, four separate experiments, FIG. 6): markedly enhanced
priming of the fMLP stimulated chemiluminescence (RLUs) (neutrophils): higher level of relative light units (RLUs) as well as a more prolonged time course at maximal production
enhancement of the fMLP stimulated respiratory burst by priming (cytoplasts): 1.6 to 2.0 fold
